{"source": "ChEMBL document CHEMBL5370528", "about": "“Synthesis-accessibility-oriented design of c-Jun N-terminal kinase 1 inhibitor” (Eur J Med Chem, 2023)", "key": {"[1]": {"molecular_target": "T1, Mitogen-activated protein kinase 9 (Homo sapiens, UniProt P45984)", "assay": "Inhibition of N-terminal GST-tagged recombinant full length human JNK2 expressed in baculovirus infected Sf9 cells using IPTTPITTTYFFFKKK as substrate at 1 uM incubated for 60 mins in the presence of ATP by ADP-Glo reagent based luminescence assay relative to control"}, "[2]": {"molecular_target": "T1, Mitogen-activated protein kinase 9", "assay": "Inhibition of N-terminal GST-tagged recombinant full length human JNK2 expressed in baculovirus infected Sf9 cells using IPTTPITTTYFFFKKK as substrate at 0.1 uM incubated for 60 mins in the presence of ATP by ADP-Glo reagent based luminescence assay relative to control"}, "[3]": {"molecular_target": "Mitogen-activated protein kinase 10 (Homo sapiens, UniProt P53779)", "sequence (P53779 whole entry)": "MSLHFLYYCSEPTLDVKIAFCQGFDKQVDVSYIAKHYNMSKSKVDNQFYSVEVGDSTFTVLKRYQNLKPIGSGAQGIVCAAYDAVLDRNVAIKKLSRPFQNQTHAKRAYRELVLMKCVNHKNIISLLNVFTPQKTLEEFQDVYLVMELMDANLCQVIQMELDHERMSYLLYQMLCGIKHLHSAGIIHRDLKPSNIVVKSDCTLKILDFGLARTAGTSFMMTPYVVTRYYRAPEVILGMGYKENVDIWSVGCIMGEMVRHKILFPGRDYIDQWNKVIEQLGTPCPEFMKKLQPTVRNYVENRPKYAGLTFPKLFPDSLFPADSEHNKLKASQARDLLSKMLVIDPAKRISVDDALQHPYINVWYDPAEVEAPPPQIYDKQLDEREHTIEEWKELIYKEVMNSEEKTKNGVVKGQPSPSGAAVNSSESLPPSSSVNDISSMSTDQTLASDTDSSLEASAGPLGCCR", "assay": "Inhibition of N-terminal GST-tagged recombinant full length human JNK3 expressed in baculovirus infected Sf9 cells using IPTTPITTTYFFFKKK as substrate at 0.1 uM incubated for 60 mins in the presence of ATP by ADP-Glo reagent based luminescence assay relative to control"}, "[4]": {"molecular_target": "T1, Mitogen-activated protein kinase 9", "assay": "Inhibition of N-terminal GST-tagged recombinant full length human JNK2 expressed in baculovirus infected Sf9 cells using IPTTPITTTYFFFKKK as substrate incubated for 60 mins in the presence of ATP by ADP-Glo reagent based luminescence assay"}, "[5]": {"molecular_target": "Mitogen-activated protein kinase 11 (Homo sapiens) (UniProt Q15759)", "sequence (Q15759 whole entry)": "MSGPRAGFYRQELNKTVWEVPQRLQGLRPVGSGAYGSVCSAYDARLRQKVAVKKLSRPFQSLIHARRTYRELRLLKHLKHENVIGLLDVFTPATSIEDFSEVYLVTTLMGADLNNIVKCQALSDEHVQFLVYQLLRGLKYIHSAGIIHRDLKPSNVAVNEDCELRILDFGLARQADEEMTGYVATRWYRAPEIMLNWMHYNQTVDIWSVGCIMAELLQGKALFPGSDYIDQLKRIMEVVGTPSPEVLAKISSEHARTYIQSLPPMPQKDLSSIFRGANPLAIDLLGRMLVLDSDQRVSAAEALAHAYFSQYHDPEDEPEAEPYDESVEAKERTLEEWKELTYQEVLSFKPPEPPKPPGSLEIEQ", "assay": "Inhibition of p38beta (unknown origin) at 1 uM preincubated for 10 mins followed by substrate addition and measured after 60 mins in the presence of ATP by ADP-Glo reagent based luminescence assay relative to control", "settings": "time 70.0 min"}, "[6]": {"molecular_target": "Mitogen-activated protein kinase 3 (Homo sapiens) (UniProt P27361)", "sequence (P27361 whole entry)": "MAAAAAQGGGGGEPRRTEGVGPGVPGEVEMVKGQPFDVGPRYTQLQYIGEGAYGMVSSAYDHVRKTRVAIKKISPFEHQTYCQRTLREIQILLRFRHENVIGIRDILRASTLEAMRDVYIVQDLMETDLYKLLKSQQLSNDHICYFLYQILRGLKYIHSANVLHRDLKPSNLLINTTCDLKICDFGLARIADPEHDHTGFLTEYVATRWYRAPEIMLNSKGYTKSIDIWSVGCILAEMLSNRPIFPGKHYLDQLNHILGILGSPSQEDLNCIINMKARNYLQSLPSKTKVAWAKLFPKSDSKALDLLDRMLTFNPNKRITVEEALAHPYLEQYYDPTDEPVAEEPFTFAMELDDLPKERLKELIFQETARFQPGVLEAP", "assay": "Inhibition of ERK1 (unknown origin) at 1 uM preincubated for 10 mins followed by substrate addition and measured after 60 mins in the presence of ATP by ADP-Glo reagent based luminescence assay relative to control", "settings": "time 70.0 min"}, "[7]": {"molecular_target": "Mitogen-activated protein kinase 1 (Homo sapiens) (UniProt P28482)", "sequence (P28482 whole entry)": "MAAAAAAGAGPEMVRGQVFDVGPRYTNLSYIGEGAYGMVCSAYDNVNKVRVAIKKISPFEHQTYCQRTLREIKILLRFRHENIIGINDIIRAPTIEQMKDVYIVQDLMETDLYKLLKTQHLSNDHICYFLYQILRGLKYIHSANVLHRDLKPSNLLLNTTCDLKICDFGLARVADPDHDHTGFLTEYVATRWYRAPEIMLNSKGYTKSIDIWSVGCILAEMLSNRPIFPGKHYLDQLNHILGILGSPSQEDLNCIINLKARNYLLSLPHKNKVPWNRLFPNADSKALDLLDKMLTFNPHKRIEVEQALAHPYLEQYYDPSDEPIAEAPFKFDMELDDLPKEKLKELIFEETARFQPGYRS", "assay": "Inhibition of ERK2 (unknown origin) at 1 uM preincubated for 10 mins followed by substrate addition and measured after 60 mins in the presence of ATP by ADP-Glo reagent based luminescence assay relative to control", "settings": "time 70.0 min"}, "[8]": {"molecular_target": "T2, Dual specificity mitogen-activated protein kinase kinase 4 (Homo sapiens) (UniProt P45985)", "T2 sequence (whole entry)": "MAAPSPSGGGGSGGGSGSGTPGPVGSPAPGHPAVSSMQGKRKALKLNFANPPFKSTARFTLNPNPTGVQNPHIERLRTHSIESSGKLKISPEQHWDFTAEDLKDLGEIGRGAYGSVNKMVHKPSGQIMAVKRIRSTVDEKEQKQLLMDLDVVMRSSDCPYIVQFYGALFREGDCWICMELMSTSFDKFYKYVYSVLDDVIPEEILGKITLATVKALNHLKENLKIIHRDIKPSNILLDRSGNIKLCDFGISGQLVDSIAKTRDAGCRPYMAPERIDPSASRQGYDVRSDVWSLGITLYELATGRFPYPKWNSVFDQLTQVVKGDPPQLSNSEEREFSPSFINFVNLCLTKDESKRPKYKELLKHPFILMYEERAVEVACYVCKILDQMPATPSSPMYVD", "assay": "Inhibition of MAP2K4 (unknown origin) at 1 uM preincubated for 10 mins followed by substrate addition and measured after 60 mins in the presence of ATP by ADP-Glo reagent based luminescence assay relative to control", "settings": "time 70.0 min"}, "[9]": {"molecular_target": "Dual specificity mitogen-activated protein kinase kinase 1 (Homo sapiens) (UniProt Q02750)", "sequence (Q02750 whole entry)": "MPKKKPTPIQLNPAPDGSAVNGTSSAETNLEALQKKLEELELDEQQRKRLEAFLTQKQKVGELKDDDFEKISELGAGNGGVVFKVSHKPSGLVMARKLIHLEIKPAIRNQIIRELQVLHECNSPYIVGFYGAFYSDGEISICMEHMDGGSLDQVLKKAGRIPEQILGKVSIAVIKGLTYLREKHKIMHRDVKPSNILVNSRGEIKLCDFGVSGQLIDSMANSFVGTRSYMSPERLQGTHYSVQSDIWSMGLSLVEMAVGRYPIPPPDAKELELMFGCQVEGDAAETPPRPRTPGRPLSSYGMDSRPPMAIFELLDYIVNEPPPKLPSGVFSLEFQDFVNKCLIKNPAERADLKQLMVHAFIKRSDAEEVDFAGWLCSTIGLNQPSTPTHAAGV", "assay": "Inhibition of MAP2K1 (unknown origin) at 1 uM preincubated for 10 mins followed by substrate addition and measured after 60 mins in the presence of ATP by ADP-Glo reagent based luminescence assay relative to control", "settings": "time 70.0 min"}, "[10]": {"molecular_target": "CDK6/cyclin D1 (Homo sapiens) (UniProt P24385+Q00534)", "assay": "Inhibition of CDK6/Cyclin D1 (unknown origin) at 1 uM preincubated for 10 mins followed by substrate addition and measured after 60 mins in the presence of ATP by ADP-Glo reagent based luminescence assay", "format": "protein-complex assay", "settings": "time 70.0 min"}, "[11]": {"molecular_target": "c-Jun N-terminal kinase, JNK (Homo sapiens) (UniProt P45983+P53779+P45984)", "assay": "Inhibition of JNK in human NCI-H1299 cells assessed as inhibition of anisomycin-activated c-Jun phosphorylation preincubated for 1 hrs followed by anisomycin activation for 1 hrs by Western blot analysis", "format": "cell-based", "settings": "dose 2-50 µM, time 2.0 hrs"}, "[12]": {"assay": "Clearance in Sprague-Dawley rat at 5 mg/kg, iv by HPLC-UV analysis", "format": "ADME, organism-based", "settings": "in vivo"}, "[13]": {"assay": "Apparent volume of distribution in Sprague-Dawley rat at 5 mg/kg, iv by HPLC-UV analysis", "format": "ADME, organism-based", "settings": "in vivo, read-out: Vz"}, "[14]": {"assay": "Half-life in Sprague-Dawley rat at 75 mg/kg, po by HPLC-UV analysis", "format": "ADME, organism-based", "settings": "in vivo"}, "[15]": {"assay": "Cmax in Sprague-Dawley rat at 75 mg/kg, po by HPLC-UV analysis", "format": "ADME, organism-based", "design": "dose 75 mg/kg, route po", "settings": "in vivo"}, "[16]": {"assay": "Apparent volume of distribution in Sprague-Dawley rat at 75 mg/kg, po by HPLC-UV analysis", "format": "ADME, organism-based", "settings": "in vivo"}, "[17]": {"assay": "MRT (0 to infinity) in Sprague-Dawley rat at 75 mg/kg, po by HPLC-UV analysis", "format": "ADME, organism-based", "settings": "in vivo"}, "[18]": {"assay": "Oral bioavailability in Sprague-Dawley rat at 75 mg/kg by HPLC-UV analysis", "format": "ADME, organism-based", "settings": "in vivo"}, "Mus musculus [19]": {"test_system": "Mus musculus", "assay": "Anti-fibrotic activity in bleomycin-induced C57BL/6 mouse model of pulmonary fibrosis assessed as enhancement of lung respiratory function at 25 to 75 mg/kg, po administered twice a day for 3 weeks by spirometry analysis", "format": "functional, organism-based", "settings": "dose 25-75 mg/kg"}, "Mus musculus [20]": {"test_system": "Mus musculus", "assay": "Anti-fibrotic activity in bleomycin-induced C57BL/6 mouse model of pulmonary fibrosis assessed as increase in respiratory function by measuring minute volume at 25 to 75 mg/kg, po administered twice a day for 3 weeks by spirometry analysis", "format": "functional, organism-based", "settings": "dose 25-75 mg/kg"}, "Mus musculus [21]": {"test_system": "Mus musculus", "assay": "Anti-fibrotic activity in bleomycin-induced C57BL/6 mouse model of pulmonary fibrosis assessed as increase in respiratory function by measuring expiratory volume at 25 to 75 mg/kg, po administered twice a day for 3 weeks by spirometry analysis", "format": "functional, organism-based", "settings": "dose 25-75 mg/kg"}, "Mus musculus [22]": {"test_system": "Mus musculus", "assay": "Anti-fibrotic activity in bleomycin-induced C57BL/6 mouse model of pulmonary fibrosis assessed as restoration of respiratory function at 75 mg/kg, po administered twice a day for 3 weeks by spirometry analysis", "format": "functional"}, "Mus musculus [23]": {"test_system": "Mus musculus", "assay": "Anti-fibrotic activity in bleomycin-induced C57BL/6 mouse model of pulmonary fibrosis assessed as alleviation of neutrophil infiltration in lungs at 25 to 75 mg/kg, po administered twice a day for 3 weeks by H&E staining based analysis", "format": "functional, organism-based", "settings": "dose 25-75 mg/kg"}, "Mus musculus [24]": {"test_system": "Mus musculus", "assay": "Anti-fibrotic activity in bleomycin-induced C57BL/6 mouse model of pulmonary fibrosis assessed as reduction in alveolar space collapse at 25 to 75 mg/kg, po administered twice a day for 3 weeks by Masson's trichome staining based analysis", "format": "functional, organism-based", "settings": "dose 25-75 mg/kg"}, "Mus musculus [25]": {"test_system": "Mus musculus", "assay": "Anti-fibrotic activity in bleomycin-induced C57BL/6 mouse model of pulmonary fibrosis assessed as reduction in collagen accumulation at 25 to 75 mg/kg, po administered twice a day for 3 weeks by Masson's trichome staining based analysis", "format": "functional, organism-based", "settings": "dose 25-75 mg/kg"}}, "note": "Active and inactive are the calls of the source. The rule behind the calls is not given here.", "data": [{"smiles": "CC(C)(C)CNc1ncc(Br)c(Nc2ccccc2C(N)=O)n1", "values": [{"measurement": "inhibition", "setting": "[1]", "value": 101, "unit": "%"}, {"measurement": "inhibition", "setting": "[2]", "value": 43, "unit": "%"}, {"measurement": "inhibition", "setting": "[3]", "value": 78.5, "unit": "%"}, {"measurement": "IC50", "setting": "[4]", "value": 113, "unit": "nM"}, {"measurement": "inhibition", "setting": "[5]", "value": 9.6, "unit": "%"}, {"measurement": "inhibition", "setting": "[6]", "value": 25.9, "unit": "%"}, {"measurement": "inhibition", "setting": "[7]", "value": 18.7, "unit": "%"}, {"measurement": "inhibition", "setting": "[8]", "value": 93.8, "unit": "%"}, {"measurement": "inhibition", "setting": "[9]", "value": 2.35, "unit": "%"}, {"measurement": "inhibition", "setting": "[10]", "value": 17, "unit": "%"}, {"measurement": "inhibition", "setting": "[11]", "value": "Dose-Dependent Effect"}, {"measurement": "clearance", "setting": "[12]", "value": 131, "unit": "mL/min/kg"}, {"measurement": "Vd", "setting": "[13]", "value": 20.3, "unit": "L/kg"}, {"measurement": "half-life", "setting": "[14]", "value": 4.22, "unit": "h"}, {"measurement": "Cmax", "setting": "[15]", "value": 488, "unit": "ng/mL"}, {"measurement": "Vz", "setting": "[16]", "value": 230.54, "unit": "L/kg"}, {"measurement": "MRT inf", "setting": "[17]", "value": 5.45, "unit": "h"}, {"measurement": "bioavailability", "setting": "[18]", "value": 15.3, "unit": "%"}, {"measurement": "Activity", "setting": "Mus musculus [19]", "value": "Active"}, {"measurement": "Activity", "setting": "Mus musculus [20]", "value": "Active"}, {"measurement": "Activity", "setting": "Mus musculus [21]", "value": "Active"}, {"measurement": "Activity", "setting": "Mus musculus [22]", "value": "~100", "unit": "%"}, {"measurement": "Activity", "setting": "Mus musculus [23]", "value": "Active"}, {"measurement": "Activity", "setting": "Mus musculus [24]", "value": "Active"}, {"measurement": "Activity", "setting": "Mus musculus [25]", "value": "Active"}]}]}
